The results in this text go back to patent publication US20260198495A1, “BINARY INSECTICIDE COMPOSITION AND USE THEREOF” (SHENYANG SINOCHEM AGROCHEMICALS R & D CO., LTD., priority 2022, published 2026).

Converted amounts (≈) assume the structure as drawn. Read-outs that look alike come from different tables or passages of the source.

Holding throughout (type): in vivo
The test system of data set [1] is 3rd-instar larvae of Plutella xylostella. The data set can be described thus: Joint toxicity of I-72 + metaflumizone, airbrush spraying, Example 4, Table 4. To be noted: airbrush spraying of cabbage leaf disks, 72 h, A = compound I-72, B = metaflumizone. On the procedure: Test target: 3rd-instar larvae of Plutella xylostella, a sensitive strain reared indoors.
Test conditions: temperature: 25-27° C., humidity: RH 60%, and illumination: L:D=14:10
Experimental method: the airbrush spraying method was adopted. The cabbage cultivated in the greenhouse was taken and made into leaf disks with a diameter of 3 cm. After uniform spraying treatment with an airbrush manual sprayer, the leaf disks were placed in a 9-cm Petri dish lined with filter paper. After natural air-drying in the shade, the standard test insects were introduced, and the number of dead and live insects was investigated 72 h later.
The preparation of the pesticide solution and the evaluation method (Sun Y-P) for the joint action type of the mixture were the same as those in Example 1.

Data set [2] has as its system 3rd-instar larvae of Pyrausta nubilalis Hubern. Nature of the data set: Joint toxicity of I-72 + metaflumizone, artificial diet-pesticide film, Example 2, Table 2. To be noted: 72 h, A = compound I-72, B = metaflumizone. On the procedure:
(§1) Test subject: 3rd-instar larvae of Pyrausta nubilalis Hubern, a sensitive strain reared indoors.
(§2) Experimental method: the artificial diet-pesticide film method was adopted. A standard clean 24-well culture plate was selected. 1 ml of artificial diet was added to each well. After the diet cooled and solidified, a quantitative amount of a pesticide solution was added to the culture plate using a continuous sampler, and then it was air-dried naturally in the shade. The standard test insects were introduced, with 1 insect in each well, a total of 48 insects. The treated test insects were placed in an observation room under certain conditions. The reaction of the test insects was regularly observed, and the number of dead and live insects was investigated 72 h later.
(§3) The test conditions, the preparation method of the pesticide solution, and the evaluation method (Sun Y-P) for the joint action type of the mixture were the same as those in Example 1.

In data set [3] the test system is 3rd-instar larvae of Ostrinia furnacalis Guenee. The data set can be described thus: Joint toxicity of I-72 + organophosphorus insecticides, corn stalk dipping, Example 21, Table 21. To be noted: 48 h. The protocol: Test target: 3rd-instar larvae of Ostrinia furnacalis Guenee, a sensitive strain reared indoors.
(§4) Preparation of the pesticide solution: according to different test requirements, the test samples were accurately weighed respectively with an electronic analytical balance. The technical pesticides were dissolved in acetone, and then diluted with 0.1% Tween 80 water into a series of pesticide solutions with a certain concentration gradient according to the experimental design dosage.
Experimental method: first, fresh tender corn stalks cultivated in the greenhouse were selected, cut into small sections of 3 cm, and dipped in the prepared pesticide solution for 10 s in the order from low dosage to high dosage according to the experimental design. After natural air-drying in the shade, they were placed in a 9-cm-diameter Petri dish with filter paper, and uniform and healthy test insects were introduced, with 10 insects for each treatment and 3 replicates for each treatment. In addition, a blank control was set up.
(§5) The treated test materials were placed in an observation room, and the temperature, humidity and illumination of the observation room could be adjusted as needed. The number of dead and live insects was investigated 48 hours later. The corrected mortality rate was calculated using the Abbott's formula, and statistical analysis was performed with the DPS data processing software to obtain the toxicity regression equation, LC50 value and 95% confidence limit of each single test pesticide and each mixture of different ratios. Then, the co-toxicity coefficient of each ratio was calculated using the Sun Y-P method to evaluate the mixing effect (the same as in Example 1).

Data set [4] concerns 3rd-instar larvae of Chilo suppressalis (Walker). Nature of the data set: Joint toxicity of I-72 + organophosphorus insecticides, rice seedling dipping, Example 15, Table 15. To be noted: 48 h. The protocol: Test target: 3rd-instar larvae of Chilo suppressalis (Walker), a sensitive strain reared indoors.
as §4
Experimental method: first, tender and fresh rice seedlings were selected and dipped in the prepared pesticide solution for 10 s in the order from low dosage to high dosage according to the experimental design. After natural air-drying in the shade, they were cut into small sections of 5 cm, placed in a 9-cm-diameter Petri dish with filter paper, and uniform and healthy test insects were introduced, with 10 insects for each treatment and 3 replicates for each treatment. In addition, a blank control was set up.
as §5

The test system of data set [5] is Bemisia tabaci (Gennadius) nymphs. The data set can be described thus: Joint toxicity of I-72 + organophosphorus insecticides, cotton leaf-disk spraying, Example 18, Table 18. To be noted: 96 h. The protocol: Test target: Bemisia tabaci (Gennadius) nymphs.
as §4
Experimental method: first, cotton leaves with neat and consistent Bemisia tabaci (Gennadius) nymphs were selected and made into leaf disks, with about 20 insects on each leaf disk. Then, they were evenly sprayed with the pesticide solution in the order from low dosage to high dosage according to the experimental design, with 1.5 mL for each leaf and 3 replicates for each treatment. In addition, a blank control was set up.
as §5, with “96” for “48”

For data set [6], the system named is adult Phyllotreta spp. The data set can be described thus: Joint toxicity of I-72 + organophosphorus insecticides, cabbage seedling spraying, Example 19, Table 19. To be noted: 72 h. The protocol: Test target: adult Phyllotreta spp., a sensitive strain reared indoors.
as §4
Experimental method: first, fresh cabbage seedlings cultivated in the greenhouse were selected and evenly sprayed with the pesticide solution in the order from low dosage to high dosage according to the experimental design. After natural air-drying in the shade, they were covered with a glass cover, and uniform and healthy test insects were introduced, with 10 insects for each treatment and 3 replicates for each treatment. In addition, a blank control was set up.
as §5, with “72” for “48”

Data set [7] deals with early 2nd-instar grubs of Holotrichia diomphalia Bates. The data set can be described thus: whole plant or invertebrate. On the procedure: Test target: early 2nd-instar grubs of Holotrichia diomphalia Bates.
(§6) Test conditions: temperature: 24-26° C., humidity: RH 60%, and illumination: L:D=14:10
as §4
Experimental method: the activity against Holotrichia diomphalia Bates was determined by the insect-dipping method. The early 2nd-instar grubs of Holotrichia diomphalia Bates were selected. The target insects were dipped into the pesticide solution for 10 s and then taken out. Excess pesticide solution was absorbed with filter paper. […] A treatment without the pesticide was set as the blank control.
The test insects were transferred to a multi-well culture plate with fresh potato pieces and placed in an observation room, and the temperature, humidity and illumination of the observation room could be adjusted as needed. The number of dead and live insects was investigated 72 hours later. The corrected mortality rate was calculated using the Abbott's formula, and statistical analysis was performed with the DPS data processing software to obtain the toxicity regression equation and LC50 value of each single test pesticide and each mixture of different ratios.

The test system of data set [8] is Aphis gossypii Glover nymphs. The data set can be described thus: Joint toxicity of I-72 + organophosphorus insecticides, cotton leaf spraying, Example 17, Table 17. The note with it: 48 h. On the procedure: Test target: Aphis gossypii Glover nymphs, a sensitive strain reared indoors.
as §4
Experimental method: first, cotton leaves with uniform and consistent Aphis gossypii were selected, with about 20 insects on each leaf. Then, they were evenly sprayed with the pesticide solution in the order from low dosage to high dosage according to the experimental design, with 1.5 mL for each leaf and 3 replicates for each treatment. In addition, a blank control was set up.
as §5

Data set [9] relates to 3rd-instar larvae of Spodoptera frugiperda. Nature of the data set: Joint toxicity of I-72 + indoxacarb, corn leaf dipping, Example 3, Table 3. To be noted: 72 h, A = compound I-72, B = indoxacarb.
Source text: (§7) Test subject: 3rd-instar larvae of Spodoptera frugiperda, a sensitive strain reared indoors.
(§8) Experimental method: the dipping method was adopted. The corn leaves cultivated in the greenhouse were taken, cut into leaf segments of 5 cm long, dipped in the prepared pesticide solution for 10 s, and then cut into small pieces of 1.5 cm×1.5 cm after natural air-drying in the shade. These pieces were placed in a 24-well culture plate, and the standard test insects were introduced, with 48 insects for each treatment. The treated test insects were placed in an observation room under certain conditions. The reaction of the test insects was regularly observed, and the number of dead and live insects was investigated 72 h later.
as §3

Data set [10] has as its system 3rd-instar larvae of Spodoptera exigua Hübner. The data set can be described thus: Joint toxicity (LC50, CTC) of I-72 + indoxacarb, leaf-disk dipping, Example 1, Table 1. The note with it: cabbage leaf-disk dipping, 72 h, A = compound I-72, B = indoxacarb. The protocol:
Test subject: 3rd-instar larvae of Spodoptera exigua Hübner, a sensitive strain reared indoors.
Test conditions: temperature: 24-26° C., humidity: RH 60%, and illumination: L:D=14:10.
(§9) Preparation method: the test pesticides were accurately weighed respectively with an electronic analytical balance. After the two technical materials were respectively added into an appropriate amount of solvent and completely dissolved, the stock solution of the required concentration was prepared with water containing 0.1% Tween 80. The stock solutions of the two active ingredients were mixed in a certain ratio to prepare a mixed solution, which was then diluted respectively into a series of pesticide solutions with a certain concentration gradient according to the experimental design dosage.
Experimental method: the dipping method was adopted. […]
The co-toxicity coefficient (CTC value) of the mixture was calculated according to the following formula:
[formula] • in the formula: ATI-measured toxicity index of the mixture; S-LC50 of the standard pesticide; and M-LC50 of the mixture. […]
[formula] • in the formula: CTC-co-toxicity coefficient; ATI-measured toxicity index of the mixture; and TTI-theoretical toxicity index of the mixture. • CTC-co-toxicity coefficient • ATI-measured toxicity index of the mixture • TTI-theoretical toxicity index of the mixture

Data set [11] has as its system Frankliniella occidentalis Pergande. Nature of the data set: Joint toxicity of I-72 + organophosphorus insecticides, leaf dipping, Example 14, Table 14. The note with it: in Phaseolus vulgaris, foliar, 48 h.
Source text: Test target: Frankliniella occidentalis Pergande, a sensitive strain reared indoors.
Experimental method: first, kidney bean leaves were selected and dipped in the prepared pesticide solution for 10 s in the order from low dosage to high dosage according to the experimental design. After natural air-drying in the shade, they were placed in a 9-cm-diameter Petri dish with filter paper, and uniform and healthy test insects were introduced, with about 20 insects for each treatment and 3 replicates for each treatment. In addition, a blank control was set up.
Data set [12] has as its system 3rd-instar larvae of Hyphantria cunea. Nature of the data set: Joint toxicity of I-72 + organophosphorus insecticides, poplar leaf dipping, Example 20, Table 20. To be noted: foliar, A = compound I-72, B = phoxim, poplar leaf dipping, 72 hours, read-out: LC50.
Source text: Test target: 3rd-instar larvae of Hyphantria cunea, a sensitive strain reared indoors.
Experimental method: first, fresh and tender poplar leaves were selected, cut into small sections of 5 cm, and dipped in the prepared pesticide solution for 10 s in the order from low dosage to high dosage according to the experimental design. After natural air-drying in the shade, they were placed in a 9-cm-diameter Petri dish with filter paper, and uniform and healthy test insects were introduced, with 10 insects for each treatment and 3 replicates for each treatment. In addition, a blank control was set up.
The treated test materials were placed in an observation room, and the temperature, humidity and illumination of the observation room could be adjusted as needed. The number of dead and live insects was investigated 72 hours later.
Data set [13] deals with 3rd-instar larvae of Spodoptera frugiperda. Nature of the data set: Joint toxicity of I-72 + spinosad, corn leaf dipping, Example 10, Table 10. The note with it: 72 h, A = compound I-72, B = spinosad.
Source text: as §7, §8
The test conditions, the preparation of the pesticide solution and the evaluation method were the same as those in Example 1.

Data set [14] concerns 3rd-instar larvae of Pyrausta nubilalis Hubern. The data set can be described thus: Synergism assay (Bliss) of I-72 + abamectin, spinosad, spinetoram, emamectin benzoate, Example 6, Table 6. To be noted: 72 h. The protocol:
as §1, §6, §9, §2
The evaluation method adopted was the Bliss method. This method is applicable to the qualitative screening of insecticidal compositions. According to the concept of independent joint action he proposed, Bliss believes that the theoretical mortality rate P when insecticides are used in combination can be calculated by the following formula: […]
Pm is the mortality rate (%) of the target when the first active ingredient is at a concentration of m; and Pn is the mortality rate (%) of the target when the second active ingredient is at a concentration of n.
If the actual mortality rate of the target after the two active ingredients are mixed at a certain concentration is greater than theoretical mortality rate P, it is determined that the two active ingredients have a synergistic effect when used in combination at the set concentration, and otherwise, they have an antagonistic effect.

As for `N#Cc1ccc(CC(=NNC(=O)Nc2ccc(OC(F)(F)F)cc2)c2cccc(C(F)(F)F)c2)cc1` (mixture of isomers) [metaflumizone, reference compound], the median lethal concentration (LC50) in [1] is 12.8933 µg/mL; in data set [2], 1.0724 µg/mL.
Regarding `COP(=O)(NC(C)=O)SC` (stereo not drawn) [acephate], the LC50 in data set [3] is 15.5 µg/mL; in data set [4], 11.1 µg/mL; in data set [5] it was 34.9 µg/mL; in data set [6], 61.6 µg/mL.
Turning to `CO/C=C(/C(=O)OC)c1ccccc1Oc1cc(Oc2ccccc2C#N)ncn1` [azoxystrobin], the LC50 in [7] (A = compound I-72, B = azoxystrobin, insect-dipping, 72 hours) was 473.5404 µg/mL (≈ 1170 µM).
For `CCOP(=S)(OCC)Oc1cc(C)nc(C(C)C)n1` [diazinon], the 50% lethal concentration (LC50) in data set [8] is 20.5 µg/mL; in [4] (3rd-instar larvae, rice seedling dipping, A = compound I-72, B = diazinon, read-out: LC50) it was 6.22 µg/mL.
In turn, `CC1COC(Cn2cncn2)(c2ccc(Oc3ccc(Cl)cc3)cc2Cl)O1` (stereo not drawn) [difenoconazole] displayed an LC50 in [7] (Holotrichia diomphalia, 72 h) of 500 µg/mL (≈ 1230 µM).
In the case of `COC(=O)N(C(=O)N1CO[C@@]2(C(=O)OC)Cc3cc(Cl)ccc3C2=N1)c1ccc(OC(F)(F)F)cc1` [indoxacarb, reference compound], the LC50 in [9] stood at 2.2438 µg/mL; in [10], 0.8555 µg/mL.
On to `CCOC(=O)CC(SP(=S)(OC)OC)C(=O)OCC` (stereo not drawn) [malathion], for which the 50% lethal concentration (LC50) in data set [11] was 52.3 µg/mL.
`CCOP(=S)(OCC)O/N=C(\C#N)c1ccccc1` [phoxim]: the 50% lethal concentration (LC50) in data set [8] (nymphs, cotton leaf spraying, A = compound I-72, B = phoxim, read-out: LC50) was determined as 31.6 µg/mL; in data set [12], 10.1 µg/mL.
Compound `CC(C)(C)C(O)(CCc1ccc(Cl)cc1)Cn1cncn1` (stereo not drawn) [tebuconazole] showed a 50% lethal concentration (LC50) in data set [7] (Holotrichia diomphalia, 72 h) of 477 µg/mL (≈ 1550 µM).
Take spinosad: the LC50 in data set [13] was 1.1242 µg/mL. Moreover, the “Mortality rate (%)” value in data set [14] (single agent 0.1 mg/L) was found to be 4.17%; in data set [14] (single agent 1 mg/L), 52.08%; in data set [14] (single agent 2 mg/L), 68.75%; in data set [14] (single agent 5 mg/L), 79.17%.
